In patent US20050070570A1, “Novel potassium channels modulators” (4SC AG, priority 2003, published 2005) one finds Effect and Em effect data, which are given here for twelve compounds.

Sequence of BK currents (CHO cells permanently transfected with cloned α-hSlo and β-bSlo) (Q12791 whole entry): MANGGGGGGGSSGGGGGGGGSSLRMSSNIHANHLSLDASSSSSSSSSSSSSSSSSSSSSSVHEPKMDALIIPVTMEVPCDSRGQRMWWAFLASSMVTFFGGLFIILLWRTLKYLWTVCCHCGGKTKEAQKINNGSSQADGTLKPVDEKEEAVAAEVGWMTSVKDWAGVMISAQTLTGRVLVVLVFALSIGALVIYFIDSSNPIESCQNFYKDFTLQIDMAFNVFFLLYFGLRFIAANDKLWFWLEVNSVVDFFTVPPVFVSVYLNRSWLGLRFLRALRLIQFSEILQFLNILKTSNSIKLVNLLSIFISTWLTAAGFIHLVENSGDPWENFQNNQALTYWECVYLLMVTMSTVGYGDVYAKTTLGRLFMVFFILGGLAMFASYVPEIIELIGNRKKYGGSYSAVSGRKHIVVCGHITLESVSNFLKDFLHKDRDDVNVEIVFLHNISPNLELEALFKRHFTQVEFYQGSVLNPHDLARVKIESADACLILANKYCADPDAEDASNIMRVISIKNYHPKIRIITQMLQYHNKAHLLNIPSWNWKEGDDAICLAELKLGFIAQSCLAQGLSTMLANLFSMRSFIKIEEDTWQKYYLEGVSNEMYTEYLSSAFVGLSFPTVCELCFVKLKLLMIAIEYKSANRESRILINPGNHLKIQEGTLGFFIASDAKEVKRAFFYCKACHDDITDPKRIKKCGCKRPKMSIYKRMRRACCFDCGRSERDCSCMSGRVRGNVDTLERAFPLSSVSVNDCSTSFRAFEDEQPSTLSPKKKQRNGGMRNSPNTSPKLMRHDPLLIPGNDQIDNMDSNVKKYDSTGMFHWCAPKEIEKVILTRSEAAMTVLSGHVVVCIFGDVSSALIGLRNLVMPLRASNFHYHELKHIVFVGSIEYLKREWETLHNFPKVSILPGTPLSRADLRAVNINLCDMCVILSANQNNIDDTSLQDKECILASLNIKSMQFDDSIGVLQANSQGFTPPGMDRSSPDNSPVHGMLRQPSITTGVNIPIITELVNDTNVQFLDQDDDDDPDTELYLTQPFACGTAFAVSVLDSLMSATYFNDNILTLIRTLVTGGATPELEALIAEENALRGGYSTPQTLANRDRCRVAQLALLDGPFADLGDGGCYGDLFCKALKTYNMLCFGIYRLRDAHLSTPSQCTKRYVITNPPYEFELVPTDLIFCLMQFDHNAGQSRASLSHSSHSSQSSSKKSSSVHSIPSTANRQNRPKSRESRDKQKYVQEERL
Sequence of BK currents (CHO cells permanently transfected with cloned α-hSlo and β-bSlo) (Q28067 whole entry partner): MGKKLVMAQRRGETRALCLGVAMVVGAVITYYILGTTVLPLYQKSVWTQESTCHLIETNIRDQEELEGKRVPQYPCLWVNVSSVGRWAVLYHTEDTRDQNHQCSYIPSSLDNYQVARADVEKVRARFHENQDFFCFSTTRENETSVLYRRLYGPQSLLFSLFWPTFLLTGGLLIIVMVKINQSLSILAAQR

The target in one test is BK currents (CHO cells permanently transfected with cloned α-hSlo and β-bSlo) (Homo sapiens, UniProt Q12791). Kind of test: Electrophysiological studies: whole-cell patch-clamp of BK currents. It counts as cell-based. The settings on record: ratio of current increase after application of compound (20 μM) relative to the control current before compound application; steady-state. As to the method:
Electrophysiological Studies:
CHO cells permanently transfected with cloned α-hSlo and β-bSlo were maintained as described above and used for electrophysiological characterisation. The whole-cell configuration of the patch-lamp technique was used to determine the effect of modulators on BK currents in these cells. The cell line expressing functional BK currents (Zhou et al., Pflügers Arch. 436, p. 725 (1998)) were plated onto glass cover slips with a density of 1-5×10^4 cells/cover slip, incubated (37° C., 5% CO2) and used for patch-lamp experiments within 24-48 h. Cells were bathed in mammalian ringer solutions containing (in mM): 160NaCl, 4.5KCl, 2CaCl2, 1MgCl2, 10HEPES, adjusted to pH 7.4, 290-310 mOsm. The internal pipette solution contained (in mM): 160KCl, 2CaCl2, 1MgCl2, 10 HEPES, EGTA was added to reach a free [Ca^2+]internal=1×10^−6M, adjusted to pH 7.2, 290-310 mOsm. Borosilicate pipettes with a resistance of 2-3 MΩ were filled with the internal solution and mounted on an appropriate holder. […]
After addition of the compounds to the bath solution their modulating effect was determined by the increase or decrease of specific BK currents after reaching steady-state relative to the BK current before application of drugs (see Table II).
(In general: In patch-clamp work, channel activity is measured electrically.)
As to `COc1cc2c(c(OC)c1)C(c1cccc(OC(F)(F)F)c1)N(C(=O)c1ccc(OC(F)(F)F)cc1)CC2` (centres unmarked) [Compound 30, [6,8-Dimethoxy-1-(3-tifluoromethoxy-phenyl)-3,4-dihydro-1H-isoquinolin-2-yl](4-trifluoromethoxy-phenyl)-metanone], the Effect entry is “+ (<1.2 = +)”. Still for that read-out and setting: in the case of `COc1cc2c(c(OC)c1)C(C)N(S(=O)(=O)c1cccc([N+](=O)[O-])c1)CC2` (centres unmarked) [Compound 36, 6,8-Dimethoxy-1-methyl-2-(3-nitro-benzenesulfonyl)-1,2,3,4-tetrahydro-isoquinoline] it was “++ (>1.2 = ++)”.

The target of the next test is BK channels (CHO cells permanently transfected with cloned hSlo, α-hSlo and β-bSlo) (Homo sapiens, UniProt Q12791). Kind of test: Em-Assay: fluorescence membrane potential assay with voltage sensitive dye DiBAC(4)3. The class given is cell-based. Conditions: ratio of the compound effect (50 μM) compared to the maximal effect of NS004 (25 or 50 μM). An excerpt: The large conductance, voltage-dependent and Ca^2+-activated potassium channel BK is a potassium selective ion channel and belongs to the subfamily of KCa channels. Four BK alpha-subunits form a functional channel that can be regulated by intracellular Ca^2+ concentration, membrane voltage, and other mechanisms like phosphorylation states or beta subunits. To test the biological activity of the compounds, we applied two different techniques, a fluorescence based assay using a voltage sensitive dye (Em-Assay) as well as exploiting electrophysiological methods.
Sequence of BK channels (CHO cells permanently transfected with cloned hSlo, α-hSlo and β-bSlo) (Q12791 whole entry): as the sequence (Q12791 whole entry) above
Sequence of BK channels (CHO cells permanently transfected with cloned hSlo, α-hSlo and β-bSlo) (Q28067 whole entry partner): as the sequence (Q28067 whole entry partner) above
CHO cells permanently transfected with cloned hSlo (α-hSlo and β-bSlo), yielding typical BK potassium currents (Zhou et al., Pflügers Arch., 436: 725-734 (1998), were used for the evaluation of compound activity. Activation or inhibition of BK channels in these cells leads to a change of the electrochemical gradient causing a hyperpolarized or depolarised membrane potential, respectively.
To determine changes in the membrane potential of the cells we used the voltage sensitive dye DiBaC(4)3 (Molecular Probes) in a kinetic assay system using a fluorescent plate reader (Manning and Sontheimer, J. Neurosci. Meth., 91: 73-81 (1999). The anionic bis-oxonol DiBAC(4)3 is a voltage sensitive dye which partitions from the extracellular environment into the cell where it reversibly binds to intracellular proteins, a kinetic process depending on the membrane potential of the cell. At depolarised potentials (i.e. at a reduced K^+ efflux due to blocked K^+ channels) the dye accumulates in the cell leading to an increased fluorescence intensity, due to its increased fluorescence if bound to cellular proteins. At hyperpolarized potentials (i.e. at an increased K^+ efflux due to the opening of K^+ channels), the dye partitions out of the cell causing a decreased fluorescence intensity.
hslo transfected CHO cells where maintained in DMEM supplemented with 10% FCS, 250 μg/ml Geneticin, 100 μg/m Hygromycin, 1×HT-Supplement, and 1×Non-essential Amino Acids and cultured in a humidified CO2 incubator. After trypsination, cells where plated with a density of 5×10^4 cells per well on a clear 96-well plate and incubated for 24 h. Cells where washed once with PBS, once with PBS containing 20 mM HEPES (adjusted to pH 7.4 with NaOH) and 2 μM DiBAC(4)3 (DPBS-DiBAC solution). 180 μl of the dPBS-DiBAC solution was then added to the cells and the plate incubated for 30-60 min at 37° C. During this time the dye could partition into the cells and reach a certain steady-state distribution, depending on the resting membrane potential. Test and reference compounds were stored as DMSO stock solutions and diluted in dPBS-DiBAC solution to the desired concentration.
Fluorescence intensity (Ex.: 485 nm/Em.: 520 nm) of each well was detected in the plate reader (Fluostar, BMG) every 60 seconds. After recording the baseline fluorescence for 7 minutes, 20 μl test- and reference compounds were added and the fluorescence intensity was detected for additional 15 minutes. Background was subtracted, data values were normalized and expressed as a change in fluorescence intensity against time. The change in fluorescence intensity caused by the test compounds was evaluated, compared to the effect of the reference compound NS004, and the ratio was determined (see Table I).
`COc1cc2c(c(OC)c1)C(c1cccc(OC(F)(F)F)c1)N(C(C)=O)CC2` (centres unmarked) [Compound 29, 1-[6,8-Dimethoxy-1-(3-trifluoromethoxy-phenyl)-3,4-dihydro-1H-isoquinolin-2-yl]-ethanone]: the Em effect entry is “++ (>1-1.5=++)”. On to `COc1cc2c(c(OC)c1)C(c1cccc(OC(F)(F)F)c1)N(C(=O)c1ccc(OC(F)(F)F)cc1)CC2` (centres unmarked) [Compound 30, [6,8-Dimethoxy-1-(3-tifluoromethoxy-phenyl)-3,4-dihydro-1H-isoquinolin-2-yl](4-trifluoromethoxy-phenyl)-metanone], for which the Em effect entry was “+ (0-1=+)”. With `COc1ccc(C(=O)N2CCc3cc(OC)cc(OC)c3C2c2cccc(OC(F)(F)F)c2)cc1` (centres unmarked) [Compound 31, [6,8-Dimethoxy-1-(3-trifluoromethoxy-phenyl)-3,4-dihydro-1H-isoquinolin-2-yl]-(4-methoxy-phenyl)-methanone], the Em effect entry is on record as “+ (0-1=+)”. On to `COc1cc2c(c(OC)c1)C(c1cccc(OC(F)(F)F)c1)N(C(=O)c1ccc(NC(C)=O)cc1)CC2` (centres unmarked) [Compound 32, N-{4-[6,8-Dimethoxy-1-(3-trifluoro-methoxy-phenyl)-3,4-dihydro-1H-isoquinoline-2-carbonyl]-phenyl}-acetamide], for which the Em effect entry is on record as “+ (0-1=+)”. Consider `COc1cc2c(c(OC)c1)C(c1cccc(OC(F)(F)F)c1)N(S(=O)(=O)c1cc(C(F)(F)F)ccc1[N+](=O)[O-])CC2` (centres unmarked) [Compound 34, 6,8-Dimethoxy-2-(2-nitro-5-trifluoromethyl-benzenesulfonyl)-1-(3-trifluoromethoxy-phenyl)-1,2,3,4-tetrahydro-isoquinoline], for which the Em effect result is reported as “+ (0-1=+)”. On to `COc1cc2c(c(OC)c1)C(c1cccc(OC(F)(F)F)c1)N(S(=O)(=O)c1cc(C(F)(F)F)cc(C(F)(F)F)c1)CC2` (centres unmarked) [Compound 35, 2-(3,5-Bis-trifluoromethyl-benzenesulfonyl)-6,8-dimethoxy-1-(3-trifluoromethoxy-phenyl)-1,2,3,4-tetrahydroisoquinoline], for which the Em effect result was “+ (0-1=+)”.

For `COc1cc2c(c(OC)c1)C(C)N(S(=O)(=O)c1cccc([N+](=O)[O-])c1)CC2` (centres unmarked) [Compound 36, 6,8-Dimethoxy-1-methyl-2-(3-nitro-benzenesulfonyl)-1,2,3,4-tetrahydro-isoquinoline], the Em effect result is recorded as “++ (>1-1.5=++)”. `COc1cc2c(c(OC)c1)C(C)N(S(=O)(=O)c1cc(C(F)(F)F)cc(C(F)(F)F)c1)CC2` (centres unmarked) [Compound 37, 2-(3,5-Bis-trifluoromethyl-benzenesulfonyl)-6,8-dimethoxy-1-methyl-1,2,3,4-tetra-hydroisoquinoline]: the Em effect entry was “+ (0-1=+)”.

Take `COc1cc2c(c(OC)c1)C(C)N(C(=O)c1cccc([N+](=O)[O-])c1)CC2` (centres unmarked) [Compound 38, (6,8-Dimethoxy-1-methyl-3,4-dihydro-1H-isoquinolin-2-yl)-(3-nitro-phenyl)-methanone]: the Em effect result is reported as “+ (0-1=+)”. Same read-out and setting: for `COc1cc2c(c(OC)c1)C(C)N(C(=O)c1ccc(OC(F)(F)F)cc1)CC2` (centres unmarked) [Compound 39, (6,8-Dimethoxy-1-methyl-3,4-dihydro-1H-isoquinolin-2-yl)-(4-trifluoro-methoxy-phenyl)-methanone] the value was “+ (0-1=+)”.

For the compound `COc1ccc(C(=O)N2CCc3cc(OC)cc(OC)c3C2C)cc1` (centres unmarked) [Compound 40, (6,8-Dimethoxy-1-methyl-3,4-dihydro-1H-isoquinolin-2-yl)-(4-methoxy-phenyl)-methanone], the Em effect result is “+ (0-1=+)”.

With “(3,5-Bis-trifluoromethoxy-phenyl)-[6,8-dimethoxy-1-(3-trifluoromethoxy-phenyl)-3,4-dihydro-1H-iso-quinolin-2-yl]-methanone [Compound 33]”, the Em effect entry is listed as “+ (0-1=+)”.
